#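 Tested at 5 concentrations; 48 h exposure; 96-well plates; endpoints linearly interpolated, else capped at highest concentration. TGI: total growth inhibition.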
# Columns and labels:
# Assay in all cases: NCI-60 cell line screen, 48 h
# 786-0 renal = system: 786-0 renal
# ACHN renal = system: ACHN renal
# BT-549 breast = system: BT-549 breast
# CAKI-1 renal = system: CAKI-1 renal
# CCRF-CEM leukemia = system: CCRF-CEM leukemia
# COLO 205 colon = system: COLO 205 colon
# DU-145 prostate = system: DU-145 prostate
# EKVX NSCLC = system: EKVX NSCLC
# HCC-2998 colon = system: HCC-2998 colon
# HCT-116 colon = system: HCT-116 colon
# HCT-15 colon = system: HCT-15 colon
# HL-60(TB) leukemia = system: HL-60(TB) leukemia
# HOP-62 NSCLC = system: HOP-62 NSCLC
# HOP-92 NSCLC = system: HOP-92 NSCLC
# HT29 colon = system: HT29 colon
# IGROV1 ovarian = system: IGROV1 ovarian
# K-562 leukemia = system: K-562 leukemia
# KM12 colon = system: KM12 colon
# LOX IMVI melanoma = system: LOX IMVI melanoma
# M14 melanoma = system: M14 melanoma
# MALME-3M melanoma = system: MALME-3M melanoma
# MCF7 breast = system: MCF7 breast
# MDA-MB-231 breast = system: MDA-MB-231 breast
# MDA-MB-435 = system: MDA-MB-435
# MDA-N = system: MDA-N
# MOLT-4 leukemia = system: MOLT-4 leukemia
# NCI-H226 lung = system: NCI-H226 lung
# NCI-H23 lung = system: NCI-H23 lung
# NCI-H460 lung = system: NCI-H460 lung
# NCI-H522 lung = system: NCI-H522 lung
# NCI/ADR-RES ovarian = system: NCI/ADR-RES ovarian
# OVCAR-3 ovarian = system: OVCAR-3 ovarian
# OVCAR-4 ovarian = system: OVCAR-4 ovarian
# OVCAR-5 ovarian = system: OVCAR-5 ovarian
# OVCAR-8 ovarian = system: OVCAR-8 ovarian
# PC-3 prostate = system: PC-3 prostate
# RPMI-8226 leukemia = system: RPMI-8226 leukemia
# RXF 393 renal = system: RXF 393 renal
# SF-268 CNS = system: SF-268 CNS
# SF-295 CNS = system: SF-295 CNS
# SF-539 CNS = system: SF-539 CNS
# SK-MEL-2 melanoma = system: SK-MEL-2 melanoma
# SK-MEL-28 melanoma = system: SK-MEL-28 melanoma
# SK-MEL-5 melanoma = system: SK-MEL-5 melanoma
# SN12C renal = system: SN12C renal
# SNB-19 CNS = system: SNB-19 CNS
# SNB-75 CNS = system: SNB-75 CNS
# SR leukemia = system: SR leukemia
# SW-620 colon = system: SW-620 colon
# T-47D breast = system: T-47D breast
# TK-10 renal = system: TK-10 renal
# U251 CNS = system: U251 CNS
# UACC-257 melanoma = system: UACC-257 melanoma
# UACC-62 melanoma = system: UACC-62 melanoma
# UO-31 renal = system: UO-31 renal
# A498 renal = system: A498 renal
# A549 NSCLC = system: A549 NSCLC
# HS 578T breast = system: HS 578T breast
# SK-OV-3 ovarian = system: SK-OV-3 ovarian
smiles,measurement,setting,value
CCOC(=O)c1ccc(N=NN(C)C(=O)C(C)N)cc1 (stereo not drawn),TGI,786-0 renal,> 100 µM
same,TGI,ACHN renal,> 100 µM
same,TGI,BT-549 breast,> 100 µM
same,TGI,CAKI-1 renal,> 100 µM
same,TGI,CCRF-CEM leukemia,> 100 µM
same,TGI,COLO 205 colon,> 100 µM
same,TGI,DU-145 prostate,> 100 µM
same,TGI,EKVX NSCLC,> 100 µM
same,TGI,HCC-2998 colon,> 100 µM
same,TGI,HCT-116 colon,> 100 µM
same,TGI,HCT-15 colon,> 100 µM
same,TGI,HL-60(TB) leukemia,> 100 µM
same,TGI,HOP-62 NSCLC,> 100 µM
same,TGI,HOP-92 NSCLC,> 100 µM
same,TGI,HT29 colon,> 100 µM
same,TGI,IGROV1 ovarian,> 100 µM
same,TGI,K-562 leukemia,> 100 µM
same,TGI,KM12 colon,> 100 µM
same,TGI,LOX IMVI melanoma,> 100 µM
same,TGI,M14 melanoma,> 100 µM
same,TGI,MALME-3M melanoma,> 100 µM
same,TGI,MCF7 breast,> 100 µM
same,TGI,MDA-MB-231 breast,> 100 µM
same,TGI,MDA-MB-435,> 100 µM
same,TGI,MDA-N,> 100 µM
same,TGI,MOLT-4 leukemia,> 100 µM
same,TGI,NCI-H226 lung,> 100 µM
same,TGI,NCI-H23 lung,> 100 µM
same,TGI,NCI-H460 lung,> 100 µM
same,TGI,NCI-H522 lung,> 100 µM
same,TGI,NCI/ADR-RES ovarian,> 100 µM
same,TGI,OVCAR-3 ovarian,> 100 µM
same,TGI,OVCAR-4 ovarian,> 100 µM
same,TGI,OVCAR-5 ovarian,> 100 µM
same,TGI,OVCAR-8 ovarian,> 100 µM
same,TGI,PC-3 prostate,> 100 µM
same,TGI,RPMI-8226 leukemia,> 100 µM
same,TGI,RXF 393 renal,> 100 µM
same,TGI,SF-268 CNS,> 100 µM
same,TGI,SF-295 CNS,> 100 µM
same,TGI,SF-539 CNS,> 100 µM
same,TGI,SK-MEL-2 melanoma,> 100 µM
same,TGI,SK-MEL-28 melanoma,> 100 µM
same,TGI,SK-MEL-5 melanoma,> 100 µM
same,TGI,SN12C renal,> 100 µM
same,TGI,SNB-19 CNS,> 100 µM
same,TGI,SNB-75 CNS,> 100 µM
same,TGI,SR leukemia,> 100 µM
same,TGI,SW-620 colon,> 100 µM
same,TGI,T-47D breast,> 100 µM
same,TGI,TK-10 renal,> 100 µM
same,TGI,U251 CNS,> 100 µM
same,TGI,UACC-257 melanoma,> 100 µM
same,TGI,UACC-62 melanoma,> 100 µM
same,TGI,UO-31 renal,> 100 µM
CC1=NN(C(=O)CSc2nnc(SCC(=O)N3N=C(C)CC3(O)c3ccccc3)s2)C(O)(c2ccccc2)C1 (stereo not drawn),TGI,786-0 renal,> 100 µM
same,TGI,A498 renal,> 100 µM
same,TGI,A549 NSCLC,> 100 µM
same,TGI,ACHN renal,> 100 µM
same,TGI,BT-549 breast,47 µM
same,TGI,CAKI-1 renal,> 100 µM
same,TGI,CCRF-CEM leukemia,> 100 µM
same,TGI,COLO 205 colon,> 100 µM
same,TGI,DU-145 prostate,> 100 µM
same,TGI,EKVX NSCLC,> 100 µM
same,TGI,HCC-2998 colon,> 100 µM
same,TGI,HCT-116 colon,> 100 µM
same,TGI,HCT-15 colon,> 100 µM
same,TGI,HOP-62 NSCLC,> 100 µM
same,TGI,HOP-92 NSCLC,> 100 µM
same,TGI,HS 578T breast,70.2 µM
same,TGI,IGROV1 ovarian,> 100 µM
same,TGI,K-562 leukemia,> 100 µM
same,TGI,KM12 colon,93.2 µM
same,TGI,LOX IMVI melanoma,> 100 µM
same,TGI,M14 melanoma,36.1 µM
same,TGI,MALME-3M melanoma,> 100 µM
same,TGI,MCF7 breast,> 100 µM
same,TGI,MDA-MB-231 breast,> 100 µM
same,TGI,MDA-MB-435,> 100 µM
same,TGI,MDA-N,> 100 µM
same,TGI,MOLT-4 leukemia,> 100 µM
same,TGI,NCI-H23 lung,> 100 µM
same,TGI,NCI-H460 lung,> 100 µM
same,TGI,NCI-H522 lung,> 100 µM
same,TGI,NCI/ADR-RES ovarian,68.3 µM
same,TGI,OVCAR-3 ovarian,> 100 µM
same,TGI,OVCAR-4 ovarian,> 100 µM
same,TGI,OVCAR-5 ovarian,> 100 µM
same,TGI,OVCAR-8 ovarian,> 100 µM
same,TGI,PC-3 prostate,> 100 µM
same,TGI,RPMI-8226 leukemia,> 100 µM
same,TGI,RXF 393 renal,75.1 µM
same,TGI,SF-268 CNS,47.2 µM
same,TGI,SF-295 CNS,> 100 µM
same,TGI,SK-MEL-2 melanoma,> 100 µM
same,TGI,SK-MEL-28 melanoma,> 100 µM
same,TGI,SK-MEL-5 melanoma,> 100 µM
same,TGI,SK-OV-3 ovarian,> 100 µM
same,TGI,SN12C renal,> 100 µM
same,TGI,SNB-19 CNS,> 100 µM
same,TGI,SR leukemia,> 100 µM
same,TGI,SW-620 colon,> 100 µM
same,TGI,TK-10 renal,> 100 µM
same,TGI,U251 CNS,> 100 µM
same,TGI,UACC-257 melanoma,> 100 µM
same,TGI,UACC-62 melanoma,56.3 µM
same,TGI,UO-31 renal,> 100 µM

# From PubChem BioAssay (NCI)
